Reference: patent US12049543B2, “Copolymer containing cyclic nitroxide radical and trialkoxysilyl in side chain, and use thereof” (CrestecBio Inc., priority 2017, dated 2024)

Test system: TWNT-1 (CVCL J364) hepatic stella cells
Details: incubation 2 days
From the text: In the case of this assay kit, it is necessary to note that, although the sorafenib@siRNP can be dissolved in phosphate-buffered saline (PBS), free sorafenib is required to be dissolved in dimethylsulfoxide (DMSO).

CNC(=O)c1cc(Oc2ccc(NC(=O)Nc3ccc(Cl)c(C(F)(F)F)c3)cc2)ccn1 [sorafenib]
inhibition of proliferation of TWNT-1: inhibits the proliferation of TWNT-1
